Measured values reported in patent US5955508A, “Method for the enhancement of lymphocyte activity against opportunistic microbial pathogens” (priority 1996, dated 1999).
“Also recorded” adds a separate entry of the source. Like-named read-outs stand apart in the source and are kept apart here.

Experiments:
INF-γ in CD8+ T cells = experiment: INF-γ production by CD8+ T cells, flow cytometry; assay type: cell-based, human; details: 50 ng/ml, Mean ± SEM
Description: (§1) The T lymphocytes analyzed were obtained from 20 HIV+ patients (9 females and 11 males, 25-48 years of age). The patients were diagnosed as being HIV+ within the past 0.5-9 years, and 15 are being treated with antiviral drugs. The subjects' study identification number (indicates the order in which bloods were drawn), CD4+ and CD8+ counts (determined March, 1996, as part of the present study), age, sex, date of diagnosis, and pharmacotherapy are provided in Table 1.
(§2) The experimental protocol for this project is illustrated in Table A. Note that the cultures were exposed to two doses (5 and 50 ng/ml) of d-FEN in the mitogenesis assays, whereas only one dose (50 ng/ml) was used in the antifungal and cytokine release assays.
(§3) Cytokine Profiles. Peripheral mononuclear cells were isolated by the Ficoll-Hypaque method and washed twice with RPMI-1640 medium. Cell suspensions were made at 1×10^6 /ml and the cells activated with interleukin-2 (IL-2) for 18 h or 4 days at 37° C. under 5% CO^2 +95% air. Monensin (1 nM) then was added to the culture to block secretion of cytokines, and the cultures allowed to continue for another 3 h. The cells were washed twice with PBS+1% fetal calf serum (FCS) with 0.1% saponin+0.1% sodium azide, then washed once with PBS-1% FCS and stained with anti-cytokine MAb-FL conjugate for 30 min. Following two washes, the cells were analyzed by flow cytometry for production of IL-2, IFN-γ and TNF-α. The MAbs-FL conjugates were obtained from Pharmingen (San Diego, Calif.). Potential effects of on cytokine production were evaluated (a) as increases in the percentage of a T cell subset which produce the respective cytokine; and, (b) as increases in the amount of cytokine produced by each subset. The latter were analyzed as a shift of the cytokine histograms.
(§4) The data were analyzed by a one- or two-way analysis of variance (ANOVA) with repeated measures where appropriate ([…] version 1; Jandel, San Rafael, Calif.). Significant main effects were subjected to post hoc analysis using the Student-Newman Keuls All Pairwise Multiple Comparisons test or the Mann-Whitney U test.

[1] = system: TNF-α in CD4+ (CD8-) T cells; experiment: TNF-α production by CD4+ (CD8-) T cells, flow cytometry; assay type: cell-based, human; details: for % Positive Cells (TNF-α immunopositive), d-FEN / TNF-α Titer, d-FEN: CD4+ (CD8-) T cells, Mean ± SEM; for inhibition at 0.05 µg/mL: Homo sapiens, T-cell
Description: as §1, §2, §3, §4

[2] = system: IL-2 in CD4+ (CD8-) T cells; experiment: IL-2 production by CD4+ (CD8-) T cells, flow cytometry; assay type: cell-based, human; details: for % Positive Cells (IL-2 immunopositive), d-FEN / IL-2 Titer, d-FEN: CD4+ (CD8-) T cells, Mean ± SEM
Description: as §1, §2, §3, §4

[3] = whether by intravenous or oral administration; cited from earlier work
CD4+ lymphocytes = experiment: Con A induced lymphoproliferation of PBMC (CD4+ lymphocytes); assay type: cell-based, human; details: for comparison of 5 ng/ml with 50 ng/ml d-FEN: 5 ng/ml vs 50 ng/ml
Description: as §1
The patients fell into one of three groups (Groups A, B and C) based on their CD4+ cell counts (the number of T helper cells/μL blood): 8 of the HIV+ patients had normal (or above normal) CD4+ levels (normal range 550-1500/μL); 4 had levels between 200-499/μL; and, 7 had CD4+ counts equal to or below 200/μL. This latter group of patients by definition have AIDS (see Table 41-3 from K. J. Ryan (Ed.), Sherris Medical Microbiology, Third Edition, Appleton & Lange:Norwalk, Conn., 1994, p. 547). These patients, moreover, have had recurrent candidiasis and other opportunistic infections which have become increasingly difficult to manage. All of the patients' CD8+ cell (cytotoxic T lymphocytes) counts were within or above normal range (300-1000/μL). We were unable to obtain enough lymphocytes from one patient (#4) to analyze their antifungal activity.
Peripheral blood (40 ml) was drawn (Mar. 29-30, 1996) from the patients on a "first come, first serve" basis when they arrived at the Ponce Center for Diagnosis and Treatment (Dr. Hiram Valazquez, Medical Director) for their monthly checkup and who volunteered their blood for experimental analysis. In addition, blood was drawn from 4 healthy HIV- volunteers in order to study their lymphoproliferation response to Con A. The lymphocytes were isolated and processed as detailed below.
as §2
Cell Proliferation Analysis. Lymphoid cell suspensions were cultured in microtiter plates (Corning Glass Works, Corning, N.Y.) in the presence of 3.0 μg/ml Con-A (Pharmacia, Uppsala, Sweden) for 3 and 4 days at 37° C. d-FEN (5 and 50 ng/ml) was added the second day of culture. The cells were cultured at 2×10^5 /well in RPMI 1640 with 1% fetal bovine serum. The cells then were pulsed for 6.0 h with 1.0 μCi of [^3 H]-thymidine (DuPont-New England Nuclear Research, Boston, Mass.), harvested, and [^3 H]-thymidine incorporation determined with a liquid scintillation counter. The data are reported as a percent increase in the stimulation in dextrofenfluramine values.
as §4
^A The stimulatory effect of dFEN is expressed as a percent increase
in the stimulation index of PBMCs cultured with the two doses of dFEN
versus that cultured without dFEN. The data represent the greatest
stimulation that occurred after the lymphocytes had been in culture for 3
or 4 days. The mitogenic activity of the PBMC (CD4+ lymphocytes) index of
stimulation was calculated as follows: […]

TNF-α in CD8+ T cells = experiment: TNF-α production by CD8+ T cells, flow cytometry; assay type: cell-based, human; details: 50 ng/ml; for % Positive Cells (TNF-α immunopositive), d-FEN / TNF-α Titer, d-FEN: Mean ± SEM
Description: as §1, §2, §3, §4

lymphocyte functions = details: Clancy and Lorens, 1996, Mathews et al.; cited from earlier work
IL-2 in CD8+ T cells = experiment: IL-2 production by CD8+ T cells, flow cytometry; assay type: cell-based, human; details: for % Positive Cells (IL-2 immunopositive), d-FEN / IL-2 Titer, d-FEN: Mean ± SEM
Description: as §1, §2, §3, §4

[4] = cited from earlier work
[5] = Homo sapiens, T-cell, read-out: percent increase of IL-2 titer over VEH
[6] = 50 ng/ml, CD8+ T cells, non-AIDS HIV+

Compound: CCN[C@@H](C)Cc1cccc(C(F)(F)F)c1 [d-FEN]
- % Positive Cells (INF-γ immunopositive), d-FEN (INF-γ in CD8+ T cells; AIDS): 40 ± 5%
- INF-γ Titer, d-FEN (INF-γ in CD8+ T cells; AIDS): 764 ± 86 geometric mean channel fluorescence
- % Positive Cells (INF-γ immunopositive), d-FEN (INF-γ in CD8+ T cells; non-AIDS HIV+): 47 ± 4%
- INF-γ Titer, d-FEN (INF-γ in CD8+ T cells; non-AIDS HIV+): 964 ± 71 geometric mean channel fluorescence
- % Positive Cells (TNF-α immunopositive), d-FEN ([1]; 50 ng/ml, AIDS): 31 ± 4%
- TNF-α Titer, d-FEN ([1]; 50 ng/ml, AIDS): 156 ± 40 geometric mean channel fluorescence
- % Positive Cells (TNF-α immunopositive), d-FEN ([1]; 50 ng/ml, non-AIDS HIV+): 69 ± 3%
- TNF-α Titer, d-FEN ([1]; 50 ng/ml, non-AIDS HIV+): 310 ± 40 geometric mean channel fluorescence
- effect on TNF-α level in words ([1]; 50 ng/ml, CD4+ T cells, AIDS): not in the AIDS CD4+ T cells
- effect on number of TNF-α+ cells in words ([1]; 50 ng/ml, CD4+ T cells, AIDS): failed to affect
- inhibition at 0.05 µg/mL ([1]; read-out: percent change of TNF-α titer vs VEH): 23%
- inhibition at 0.05 µg/mL ([1]; read-out: reduction of the level of TNF-α): 23%
- % Positive Cells (IL-2 immunopositive), d-FEN ([2]; 50 ng/ml, AIDS): 9 ± 4%
- IL-2 Titer, d-FEN ([2]; 50 ng/ml, AIDS): 213 ± 33 geometric mean channel fluorescence
- % Positive Cells (IL-2 immunopositive), d-FEN ([2]; 50 ng/ml, non-AIDS HIV+): 32 ± 3%
- IL-2 Titer, d-FEN ([2]; 50 ng/ml, non-AIDS HIV+): 308 ± 27 geometric mean channel fluorescence
- effect on IL-2 levels in words ([2]; 50 ng/ml, CD4+ T cells, non-AIDS): not in the non-AIDS patients' CD4+ T cells
- activation at 0.05 µg/mL [2, 5]: 55%
- protein binding [3]: about 36%
- mitogenesis of human controls and AIDS patients vs non-AIDS HIV+ patients (CD4+ lymphocytes; 5 ng/ml d-FEN): greater mitogenesis in the presence of 5 ng/ml d-FEN than the non-AIDS HIV+ patients
- comparison of 5 ng/ml with 50 ng/ml d-FEN (CD4+ lymphocytes): lymphocytes obtained from human control and AIDS subjects respond better in vitro to a low (5 ng/ml) than to a high (50 ng/ml) dose; also recorded: greater lymphoproliferation in AIDS derived lymphocytes than 50 ng/ml
- comparison of 5 ng/ml with 50 ng/ml d-FEN (CD4+ lymphocytes; listed as dextrofenfluramine): more effective than 50 ng/ml
- mitogenesis of non-AIDS HIV+ patients (Groups A+B) vs AIDS group (CD4+ lymphocytes; 50 ng/ml d-FEN): greater mitogenesis than the AIDS group (Group C)
- dose effect, two way ANOVA (CD4+ lymphocytes; 5 vs 50 ng/ml, p=0.15): did not reach significance
- activation at 0.005 µg/mL (CD4+ lymphocytes; Homo sapiens, Lymphocyte, 5 ng/ml d-FEN, Groups A + B (non-AIDS HIV+), Con A, read-out: Increase in Index of Stimulation, Mean ± SEM): 17 ± 8%
- activation at 0.05 µg/mL (CD4+ lymphocytes; Homo sapiens, Lymphocyte, 50 ng/ml d-FEN, Groups A + B (non-AIDS HIV+), Con A, read-out: Increase in Index of Stimulation, Mean ± SEM): 50 ± 8%
- proliferation, AIDS patient #15 (CD4+ lymphocytes; no detectable CD4+ cells): did not show any proliferation
- effect on TNF-α titer in words (TNF-α in CD8+ T cells): No significant effects on TNF-α titer were observed
- % Positive Cells (TNF-α immunopositive), d-FEN (TNF-α in CD8+ T cells; AIDS): 62 ± 4%
- TNF-α Titer, d-FEN (TNF-α in CD8+ T cells; AIDS): 329 ± 57 geometric mean channel fluorescence
- % Positive Cells (TNF-α immunopositive), d-FEN (TNF-α in CD8+ T cells; non-AIDS HIV+): 69 ± 3%
- TNF-α Titer, d-FEN (TNF-α in CD8+ T cells; non-AIDS HIV+): 392 ± 47 geometric mean channel fluorescence
- activation at 0.05 µg/mL (TNF-α in CD8+ T cells; Homo sapiens, T-cell, AIDS, read-out: percent increase of TNF-α+ cells over VEH): 24%
- immune functions in experimental animal models, in words (lymphocyte functions): augment T and B lymphocyte functions, to increase cell-mediated cytotoxicity for natural killer cell (NK) tumor targets and to enhance cell-mediated activities for opportunistic microbial pathogens
- % Positive Cells (IL-2 immunopositive), d-FEN (IL-2 in CD8+ T cells; 50 ng/ml, CD8+ T cells, AIDS): 18 ± 4%
- IL-2 Titer, d-FEN (IL-2 in CD8+ T cells; 50 ng/ml, CD8+ T cells, AIDS): 147 ± 34 geometric mean channel fluorescence
- effect on IL-2 titer in words (IL-2 in CD8+ T cells; 50 ng/ml, CD8+ T cells, non-AIDS): not from the non-AIDS patients
- % Positive Cells (IL-2 immunopositive), d-FEN (IL-2 in CD8+ T cells; [6]): 36 ± 3%
- IL-2 Titer, d-FEN (IL-2 in CD8+ T cells; [6]): 220 ± 28 geometric mean channel fluorescence
- activation at 0.05 µg/mL (IL-2 in CD8+ T cells; [5]): 40%
- level in tissue and in plasma ([4]; 5 mg dextrofenfluramine per os): about 5 ng/ml
- conversion to metabolite dextronorfenfluramine ([4]; upon administration, in vivo): partially converts upon administration to its metabolite dextronorfenfluramine
